Reference: patent US10174016B2 (BAYER AKTIENGESELLSCHAFT, priority 2014, dated 2019)

Columns and labels:
[1] = target: human P2X3 receptor (Homo sapiens (Human), UniProt P56373); test: Intracellular calcium measurement (FLIPR, Fluo-4) of antagonist activity at human P2X3 receptors; format: cell-based; conditions: human P2X3, FLIPR calcium assay, agonist α,β-Me-ATP; read-out: hP2X3 IC50
How it was run: (§1)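 Antagonism quantified from peak calcium fluorescence (Fluo-4, FLIPR, 90 sec read) evoked by EC80 α,β-Me-ATP, after a 30 min, 37° C. compound pretreatment in 1% DMSO. Human P2X3- or P2X2/3-expressing cells used; triplicate means fitted for IC50, percent maximal inhibition and Hill coefficient.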

[2] = target: human P2X2/3 receptor (Homo sapiens (Human), UniProt P56373+Q9UBL9); test: Intracellular calcium measurement (FLIPR, Fluo-4) of antagonist activity at human P2X2/3 receptors; format: cell-based; conditions: human P2X2/3, FLIPR calcium assay, agonist α,β-Me-ATP; read-out: hP2X2/3 IC50
How it was run: as §1

Chain of human P2X2/3 receptor (P56373 whole entry): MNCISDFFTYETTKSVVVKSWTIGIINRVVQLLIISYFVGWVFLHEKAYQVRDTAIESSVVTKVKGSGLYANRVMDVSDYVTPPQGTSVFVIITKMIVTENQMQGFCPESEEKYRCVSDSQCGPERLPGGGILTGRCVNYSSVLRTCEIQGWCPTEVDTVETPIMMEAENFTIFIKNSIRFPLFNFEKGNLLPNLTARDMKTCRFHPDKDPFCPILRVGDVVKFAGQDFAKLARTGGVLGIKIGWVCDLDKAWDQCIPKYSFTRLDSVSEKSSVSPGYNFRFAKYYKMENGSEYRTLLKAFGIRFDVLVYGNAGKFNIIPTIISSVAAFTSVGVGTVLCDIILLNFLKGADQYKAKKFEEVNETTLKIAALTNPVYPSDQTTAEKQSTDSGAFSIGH
Chain of human P2X2/3 receptor (Q9UBL9 whole entry): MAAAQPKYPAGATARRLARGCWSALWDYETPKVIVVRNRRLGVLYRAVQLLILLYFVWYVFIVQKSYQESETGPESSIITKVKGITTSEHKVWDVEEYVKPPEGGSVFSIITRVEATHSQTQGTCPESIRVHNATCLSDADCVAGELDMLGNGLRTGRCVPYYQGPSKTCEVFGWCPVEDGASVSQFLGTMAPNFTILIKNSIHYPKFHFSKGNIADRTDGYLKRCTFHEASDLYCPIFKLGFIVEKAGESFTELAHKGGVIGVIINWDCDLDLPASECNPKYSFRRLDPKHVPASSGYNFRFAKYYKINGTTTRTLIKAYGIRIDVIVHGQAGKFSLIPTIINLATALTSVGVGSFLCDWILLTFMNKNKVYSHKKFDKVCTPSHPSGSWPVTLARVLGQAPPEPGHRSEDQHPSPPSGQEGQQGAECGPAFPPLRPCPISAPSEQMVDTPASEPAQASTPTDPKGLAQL
Chain of human P2X3 receptor (P56373 whole entry): as the sequence (P56373 whole entry) above

Row | IC50 [1] | IC50 [2] | SMILES
1 | 0.186 µM | ≥ 10 µM | Cc1cnc(CNC(=O)c2cc(OC[C@H]3CCOC3)cc(-c3ncc(C)s3)c2)cn1 [Example 67, N-[(5-Methylpyrazin-2-yl)methyl]-3-(5-methyl-1,3-thiazol-2-yl)-5-[(3S)-tetrahydrofuran-3-ylmethoxy]benzamide]
2 | 0.044 µM | 1.62 µM | Cc1cnc([C@@H](C)NC(=O)c2cc(OC[C@H]3CCOC3)cc(-c3ncc(C)s3)c2)cn1 [Example 68, N-[(1R)-1-(5-Methylpyrazin-2-yl)ethyl]-3-(5-methyl-1,3-thiazol-2-yl)-5-[(3S)-tetrahydrofuran-3-ylmethoxy]benzamide]
3 | 0.004 µM | 0.101 µM | Cc1cnc(-c2cc(OC[C@@H]3CCOC3)cc(C(=O)N[C@H](C)c3cnc(C(F)(F)F)nc3)c2)s1 [Example 73, 3-(5-Methyl-1,3-thiazol-2-yl)-5-[(3R)-tetrahydrofuran-3-ylmethoxy]-N-[(1R)-1-[2-(trifluoromethyl)pyrimidin-5-yl]ethyl]benzamide]
4 | 0.201 µM | 5.79 µM | Cc1cnc(CNC(=O)c2cc(OC[C@@H]3CCOC3)cc(-c3ncc(C)s3)c2)cn1 [Example 76, N-[(5-Methylpyrazin-2-yl)methyl]-3-(5-methyl-1,3-thiazol-2-yl)-5-[(3R)-tetrahydrofuran-3-ylmethoxy]benzamide]
5 | 0.01 µM | 0.183 µM | Cc1ccc([C@@H](C)NC(=O)c2cc(OC[C@@H]3CCOC3)cc(-c3ncc(C)s3)c2)nn1 [Example 77, N-[(1R)-1-(6-Methylpyridazin-3-yl)ethyl]-3-(5-methyl-1,3-thiazol-2-yl)-5-[(3R)-tetrahydrofuran-3-ylmethoxy]benzomide]
6 | 0.012 µM | 0.339 µM | Cc1cnc(-c2cc(OC3CCOCC3)cc(C(=O)NC(C)c3ncc(F)cc3Cl)c2)s1 (centres unmarked) [Example 80, N-[1-(3-Chloro-5-fluoropyridin-2-yl)ethyl]-3-(5-methyl-1,3-thiazol-2-yl)-5-(tetrahydro-2H-pyran-4-yloxy)benzamide]
7 | 0.003 µM | 0.034 µM | Cc1cnc(-c2cc(OC3CCOCC3)cc(C(=O)NC(C)c3ncc(Cl)cc3F)c2)s1 (centres unmarked) [Example 81, N-[1-(5-Chloro-3-fluoropyridin-2-yl)ethyl]-3-(5-methyl-1,3-thiazol-2-yl)-5-(tetrahydro-2H-pyran-4-yloxy)benzamide]
8 | 0.125 µM | 1.16 µM | Cc1cnc(CNC(=O)c2cc(OC3CCOCC3)cc(-c3ncc(C)s3)c2)cn1 [Example 83, N-[(5-Methylpyrazin-2-yl)methyl]-3-(5-methyl-1,3-thiazol-2-yl)-5-(tetrahydro-2H-pyran-4-yloxy)benzamide]
9 | 0.015 µM | 0.119 µM | Cc1ccc([C@@H](C)NC(=O)c2cc(OC3CCOCC3)cc(-c3ncc(C)s3)c2)nn1 [Example 87, N-[(1R)-1-(6-Methylpyridazin-3-yl)ethyl]-3-(5-methyl-1,3-thiazol-2-yl)-5-(tetrahydro-2H-pyran-4-yloxy)benzamide]
10 | 0.03 µM | 0.217 µM | COc1ccc(CNC(=O)c2cc(OC3CCOCC3)cc(-c3ncc(C)s3)c2)nn1 [Example 88, N-[(6-Methoxypyridazin-3-yl)methyl]-3-(5-methyl-1,3-thiazol-2-yl)-5-(tetrahydro-2H-pyran-4-yloxy)benzamide]
11 | 0.019 µM | 0.133 µM | Cc1ccc([C@@H](C)NC(=O)c2cc(OC3CCOCC3)cc(-c3ncc(C)s3)c2)cn1 [Example 91, N-[(1R)-1-(6-Methylpyridin-3-yl)ethyl]-3-(5-methyl-1,3-thiazol-2-yl)-5-(tetrahydro-2H-pyran-4-yloxy)benzamide]

The next lines start with the molecule.

Row | SMILES | IC50 [1] | IC50 [2]
12 | Cc1cnc(-c2cc(OC[C@H]3CCOC3)cc(C(=O)N[C@H](C)c3cnc(C(F)(F)F)nc3)c2)s1 [Example 70, 3-(5-Methyl-1,3-thiazol-2-yl)-5-[(3S)-tetrahydrofuran-3-ylmethoxy]-N-[(1R)-1-[2-(trifluoromethyl)pyrimidin-5-yl]ethyl]benzamide] | 0.003 µM | 0.078 µM
13 | Cc1ccc([C@@H](C)NC(=O)c2cc(OC[C@H]3CCOC3)cc(-c3ncc(C)s3)c2)nn1 [Example 71, N-[(1R)-1-(6-Methylpyridazin-3-yl)ethyl]-3-(5-methyl-1,3-thiazol-2-yl)-5-[(3S)-tetrahydrofuran-3-ylmethoxy]benzamide] | 0.015 µM | 0.315 µM
14 | Cc1cnc(-c2cc(OC[C@H]3CCOC3)cc(C(=O)N[C@H](C)c3ccc(C(F)(F)F)nn3)c2)s1 [Example 72, 3-(5-Methyl-1,3-thiazol-2-yl)-5-[(3S)-tetrahydrofuran-3-ylmethoxy]-N-[(1R)-1-[6-(trifluoromethyl)pyridazin-3-yl]ethyl]benzamide] | 0.011 µM | 0.33 µM
15 | Cc1cnc([C@@H](C)NC(=O)c2cc(OC[C@@H]3CCOC3)cc(-c3ncc(C)s3)c2)cn1 [Example 74, N-[(1R)-1-(5-Methylpyrazin-2-yl)ethyl]-3-(5-methyl-1,3-thiazol-2-yl)-5-[(3R)-tetrahydrofuran-3-ylmethoxy]benzamide] | 0.014 µM | 1.11 µM
16 | Cc1ccc(CNC(=O)c2cc(OC[C@@H]3CCOC3)cc(-c3ncc(C)s3)c2)nn1 [Example 75, N-[(6-Methylpyridazin-3-yl)methyl]-3-(5-methyl-1,3-thiazol-2-yl)-5-[(3R)-tetrahydrofuran-3-ylmethoxy]benzamide] | 0.038 µM | 6.64 µM
17 | Cc1cnc(-c2cc(OC[C@@H]3CCOC3)cc(C(=O)NC(C)c3ncc(Cl)cc3F)c2)s1 (stereo partly drawn) [Example 78, N-[1-(5-Chloro-3-fluoropyridin-2-yl)ethyl]-3-(5-methyl-1,3-thiazol-2-yl)-5-[(3R)-tetrahydrofuran-3-ylmethoxy]benzamide] | 0.006 µM | 0.083 µM
18 | Cc1cnc(-c2cc(OC[C@@H]3CCOC3)cc(C(=O)N[C@H](C)c3ccc(C(F)(F)F)nn3)c2)s1 [Example 79, 3-(5-Methyl-1,3-thiazol-2-yl)-5-[(3R)-tetrahydrofuran-3-ylmethoxy]-N-[(1R)-1-[6-(trifluoromethyl)pyridazin-3-yl]ethyl]benzamide] | 0.009 µM | 0.413 µM
19 | Cc1ccc(CNC(=O)c2cc(OC3CCOCC3)cc(-c3ncc(C)s3)c2)nn1 [Example 82, N-[(6-Methylpyridazin-3-yl)methyl]-3-(5-methyl-1,3-thiazol-2-yl)-5-(tetrahydro-2H-pyran-4-yloxy)benzamide] | 0.028 µM | 0.38 µM
20 | Cc1cnc(-c2cc(OC3CCOCC3)cc(C(=O)N[C@H](C)c3cnc(C(F)(F)F)nc3)c2)s1 [Example 85, 3-(5-Methyl-1,3-thiazol-2-yl)-5-(tetrahydro-2H-pyran-4-yloxy)-N-{(1R)-1-[2-(trifluoromethyl)pyrimidin-5-yl]ethyl}benzamide] | 0.01 µM | 0.036 µM
21 | COc1ccc([C@@H](C)NC(=O)c2cc(OC3CCOCC3)cc(-c3ncc(C)s3)c2)cn1 [Example 86, N-[(1R)-1-(6-Methoxypyridin-3-yl)ethyl]-3-(5-methyl-1,3-thiazol-2-yl)-5-(tetrahydro-2H-pyran-4-yloxy)benzamide] | 0.012 µM | 0.144 µM
22 | CC[C@@H](NC(=O)c1cc(OC2CCOCC2)cc(-c2ncc(C)s2)c1)c1cnc(C(F)(F)F)nc1 [Example 90, 3-(5-Methyl-1,3-thiazol-2-yl)-5-(tetrahydro-2H-pyran-4-yloxy)-N-{(1R)-1-[2-(trifluoromethyl)pyrimidin-5-yl]propyl}benzamide] | 0.111 µM | 0.71 µM
